The target in assay [1] is T1, bacterial neuraminidase (BNA) (Clostridium perfringens, UniProt P10481). Description: biochemical. The class given is biochemical, C. perfrigens.
The target in assay [2] is T1, bacterial neuraminidase (BNA). The assay is described as follows: biochemical. Type of assay: binding, C. perfrigens.
Assay [3] shares this target. Description: biochemical. Type of assay: biochemical, C. perfrigens. The source holds these as a separate data set.
The target is the same in assay [4]. The class given is biochemical, C. perfrigens.
The subject of a further assay is E. coli biofilm. The assay is described as follows: Antibiofilm assay (crystal violet staining). The class given is cell-based. The following applies: Escherichia coli, 24 h, 37°C, read-out: concentration giving 50% inhibition of E. coli biofilm production. Here is the method:
A 96-well microtiter plate (polystyrene) was used to measure the anti-biofilm activity as described previously ([Mohanta et al., 2020]). First, 180 μl of DNB and 10 μl of the test pathogens (OD = 1.0, 600 nm) were added to individual wells. Then, 10 μl solutions of ugonin J with different concentrations was added to each well and the contents of each well were mixed thoroughly. The prepared plate was then incubated for 24 h in a static condition at 37°C. After incubation, the supernatant in the wells in the plate was discarded and the residue washed with phosphate buffered saline (pH 7.2) to remove the free-floating non-adherent cells from the wells in the plate. The plate was then air-dried for about 45 min before the bacteria in the wells were fixed with 2% (w/v) sodium acetate. This was followed by flooding the wells with crystal violet stain (0.1%, w/v) and incubation in the dark for 30 min. After this, the wells in the plate were washed with sterile deionized water to remove all dye and allowed to dry. After drying, each well in the plate was filled with 200 μl of ethanol (95%, v/v) and the absorbance of this solution was measured at 620 nm using the SpectraMax M3 Multi-Mode Microplate Reader. All assays were conducted in triplicate and the mean ± standard deviation was calculated. […]

The next assay deals with E. coli. Description: Cell growth of E. coli (OD 600 nm). The class given is cell-based, Escherichia coli. Particulars: up to a concentration of 296 µM, compared to the control. As for the experimental part:
Escherichia coli was used in the study. All experiments were conducted in Difco™ Nutrient Broth (DNB) medium at 37°C. The E. coli was removed from glycerol stock at −80 C and transferred to the DNB plate. Next, in a 250 ml flask, a fresh single colony was inoculated into DNB (25 ml) medium and cultured at 37 C with 250 rpm for 24 h. Using the SpectraMaxM3 Multi-Mode Microplate Reader cell growth was found in the presence of different concentrations of compounds at optical densities of 600 nm. All experiments were conducted with at least three independent cultures ([Cho et al., 2013]).
Bacterial biofilms are a serious health concern owing to their abilities to tolerate antibiotics, host defense systems, and other external stresses ([Sharma et al., 2019]). It is generally accepted that neuraminidase participates in biofilm production together with quorum sensing. […] The crystal violet staining method was used for the detection of biofilm production. To investigate biofilm inhibition, E. coli was cultured overnight with or without inhibitor 1 in a 96-well plate.

Setting [5] is: IC50, inhibition of bacterial neuraminidase (BNA).
Setting [6] is: pH 5.0, read-out: IC50, inhibition of bacterial neuraminidase (BNA).

pIC50, pKd, pKi: −log10 of the molar value. Entries after “also recorded” stand apart in the source; their conditions may differ. Like-named read-outs stand apart in the source and are kept apart here.

T1 sequence (P10481 whole entry, looked up): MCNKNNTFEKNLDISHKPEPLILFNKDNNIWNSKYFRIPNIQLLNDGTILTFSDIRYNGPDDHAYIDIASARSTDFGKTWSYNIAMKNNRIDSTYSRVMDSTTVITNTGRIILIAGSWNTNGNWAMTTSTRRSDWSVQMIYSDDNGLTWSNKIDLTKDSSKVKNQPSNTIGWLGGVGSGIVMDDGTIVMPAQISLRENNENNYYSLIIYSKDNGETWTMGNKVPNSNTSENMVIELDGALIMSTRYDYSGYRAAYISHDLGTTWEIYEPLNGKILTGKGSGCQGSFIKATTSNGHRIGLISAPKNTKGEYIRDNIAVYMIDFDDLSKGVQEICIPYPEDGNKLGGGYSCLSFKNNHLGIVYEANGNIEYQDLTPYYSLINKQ

The molecule `O=c1c(O)c(-c2ccc(O)c(O)c2)oc2cc(O)cc(O)c12` [Quercetin, reference compound] had a pIC50 in assay [1] (setting [5]) of 4.69.

As to `O=c1cc(-c2ccc(O)c(O)c2)oc2cc(O)cc(O)c12` [Luteolin, reference compound], in assay [1] (setting [6]), the pIC50 is 5.36. In assay [2], the “fluorescence (FS) reduction of BNA” value is recorded as “did not undergo FS reduction”.

As a reminder, the pKi is the negative decadic logarithm of the Ki, by convention in mol/L. Lower therefore signals a large Ki. The term pKd denotes the Kd on a negative log10 scale, so that one unit is a factor of ten. `CC1(C)CCC[C@@]2(C)Oc3c(c(O)cc4oc(-c5ccc(O)c(O)c5)cc(=O)c34)C[C@@H]12` [Compound 5, ugonin S] gave a pIC50 in assay [1] (setting [5]) of 6.85. Moreover, the pIC50 in assay [1] (setting [6]) was 6.55. Further, in assay [3], the negative logarithm of the Ki (pKi) was 6.60 and the Kinetic mode entry was “Noncompetitive (0.25)”. Further, in assay [2], the “K SV (Stern-Volmer quenching constant)” value stood at 70000 L/mol, the pKd was 4.78 and the “n (number of binding sites)” value is on record as 1.24.

As to `O=C1C[C@@H](c2ccc(O)c(O)c2)Oc2cc(O)cc(O)c21` [Eriodictyol, reference compound], the pIC50 in assay [1] (setting [6]) was 4.75.

In the case of `CC1=CCCC(C)(C)C1Cc1c(O)c(O)cc2oc3c(=O)c4c(O)cc(O)cc4oc3c12` (centres unmarked) [Compound 4, ugonin M], the pIC50 in assay [1] (setting [6]) was 6.82. Moreover, in assay [3], the pKi is 6.92 and the Kinetic mode result is “Noncompetitive (0.12)”. Further, in assay [2], the “K SV (Stern-Volmer quenching constant)” value is 810000 L/mol, the pKd is 5.93 and the “n (number of binding sites)” value was found to be 1.13.

Turning to `C=C1CCCC(C)(C)[C@@H]1Cc1c(O)cc2oc(-c3ccc(O)c(O)c3)cc(=O)c2c1O` [Compound 1, ugonin J], the pIC50 in assay [1] (setting [6]) was 7.30. In addition, in assay [3], the Kinetic mode result was “noncompetitive inhibitor; also recorded: Noncompetitive (0.05)” and the “reversibility of BNA inhibition” value was “reversible inhibitor”. Further, in assay [4], the “k 5” value worked out at 0.0103 min⁻¹ and the “k 6” value amounted to 0.0486 min⁻¹. Also, in assay [2], the “K SV (Stern-Volmer quenching constant)” value is 4.77e+06 L/mol, the pKd is 6.55, the “fluorescence (FS) reduction of BNA” value is “complete FS reduction” and the “n (number of binding sites)” value is on record as 1.30. Also, the pIC50 in the assay with E. coli biofilm was 4.74. Also, the “growth inhibition of E. coli” value in the assay on E. coli was “no growth inhibition”.

With `CC1(C)CCCC2(C)Oc3cc4oc(-c5ccc(O)c(O)c5)cc(=O)c4c(O)c3CC12` (centres unmarked) [Compound 6, ugonin U], the pIC50 in assay [1] (setting [6]) is 6.46. In assay [3], the pKi was 6.54 and the Kinetic mode entry was “Noncompetitive (0.29)”. In assay [2], the “K SV (Stern-Volmer quenching constant)” value was determined as 50000 L/mol, the pKd is 4.48 and the “n (number of binding sites)” value stood at 1.44.

`C=C1CCCC(C)(C)C1Cc1c(O)cc2c(c1O)C(=O)CC(c1ccc(O)c(O)c1)O2` (centres unmarked) [Compound 2, 2-(3,4-dihydroxyphenyl)-6-[(2,2-dimethyl-6 methylenecyclohexyl)methyl]-5,7-dihydroxy-chroman-4-one]: in assay [1], the “fold greater BNA inhibitive ability than parent (mother) compound” value worked out at 250 fold. The pIC50 in assay [1] (setting [6]) is 7.15. In assay [3], the pKi was 7.22 and the Kinetic mode entry is reported as “Noncompetitive (0.06)”. In assay [2], the “K SV (Stern-Volmer quenching constant)” value was 2.53e+06 L/mol, the negative logarithm of the Kd (pKd) is 6.13 and the “n (number of binding sites)” value is listed as 1.01.

For the origin of these results see PMC9130766 (Frontiers in Pharmacology, 2022).
